pIC50: −log10 of the molar value. A value given as a limit tells only on which side of the number the result lay.

Chain of Human CD38 (P28907 whole entry): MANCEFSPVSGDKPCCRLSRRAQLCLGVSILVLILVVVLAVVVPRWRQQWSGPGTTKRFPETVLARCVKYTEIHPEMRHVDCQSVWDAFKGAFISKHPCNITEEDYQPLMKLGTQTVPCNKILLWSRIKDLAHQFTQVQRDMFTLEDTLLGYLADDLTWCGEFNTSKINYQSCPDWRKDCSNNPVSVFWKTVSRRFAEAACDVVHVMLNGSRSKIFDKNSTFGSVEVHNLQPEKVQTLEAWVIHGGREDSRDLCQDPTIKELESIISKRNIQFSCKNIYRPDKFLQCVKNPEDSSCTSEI

The assay concerns the target Human CD38 (Homo sapiens (Human), UniProt P28907). Briefly: CD38 enzyme assay. Particulars: 2 nM CD38, NAD+ substrate, absorbance at 405 nm. In kind it is biochemical. The text has this:
[formula] where SUBcmpd is the subtracted value for the individual compound treated well, SUBmin is the average of the subtracted values of the 4-(((1r,4r)-4-(2-methoxyethoxy)cyclohexyl)amino)-1-methyl-6-(thiazol-5-yl)quinolin-2(1H)-one positive control wells and SUBmax is the average of the subtracted values of the DMSO negative control wells.
The % inhibition values were plotted as a function of compound concentration and the following 4-parameter fit was applied to derive the IC50 values:
[formula] where top and bottom are normally allowed to float, but may be fixed at 100 or 0 respectively in a 3-parameter fit. The Hill Coefficient is normally allowed to float but may also be fixed at 1 in a 3-parameter fit. Y is the % inhibition and X is the compound concentration.
The molecule `COCCO[C@H]1C[C@H](NC(=O)c2nc(-n3ccnc3)nc3cc[nH]c23)C1` [Example 65, 2-(1H-Imidazol-1-yl)-N-((1r,3r)-3-(2-methoxyethoxy)cyclobutyl)-5H-pyrrolo[3,2-d]pyrimidine-4-carboxamide] showed a pIC50 of 7.00 to 8.00.

In turn, `CO[C@H]1C[C@H](NC(=O)c2nc(-n3ccnc3)nc3cc[nH]c23)C1` [Example 66, 2-(1H-Imidazol-1-yl)-N-((1r,3r)-3-methoxycyclobutyl)-5H-pyrrolo[3,2-d]pyrimidine-4-carboxamide] had a negative logarithm of the IC50 (pIC50) of 7.00 to 8.00.

`O=C(NC1CCN(CCC(F)(F)F)C1)c1nc(-n2ccnc2)nc2cc[nH]c12` (stereo not shown) [Example 67, 2-(1H-Imidazol-1-yl)-N-(1-(3,3,3-trifluoropropyl)pyrrolidin-3-yl)-5H-pyrrolo[3,2-d]pyrimidine-4-carboxamide]: the pIC50 was 7.00 to 8.00.

As to `O=C(NC1CCN(CC(F)(F)F)C1)c1nc(-n2ccnc2)nc2cc[nH]c12` (stereo not shown) [Example 68, 2-(1H-Imidazol-1-yl)-N-(1-(2,2,2-trifluoroethyl)pyrrolidin-3-yl)-5H-pyrrolo[3,2-d]pyrimidine-4-carboxamide], the pIC50 was 7.00 to 8.00.

`COCCO[C@H]1CC[C@@H](NC(=O)c2nc(-n3ccnc3)nc3cc[nH]c23)CC1` [Example 69, 2-(1H-Imidazol-1-yl)-N-((1s,4s)-4-(2-methoxyethoxy)cyclohexyl)-5H-pyrrolo[3,2-d]pyrimidine-4-carboxamide] had a pIC50 of 7.00 to 8.00.

The molecule `CNC(=O)c1nc(-n2ccnc2)nc2cc[nH]c12` [Example 70, 2-(1H-Imidazol-1-yl)-N-methyl-5H-pyrrolo[3,2-d]pyrimidine-4-carboxamide] gave a pIC50 of 6.00 to 7.00.

In turn, `CNCCO[C@H]1CC[C@H](NC(=O)c2nc(-n3ccnc3)nc3cc[nH]c23)CC1` [Example 71, 2-(1H-Imidazol-1-yl)-N-((1r,4r)-4-(2-(methylamino)ethoxy)cyclohexyl)-5H-pyrrolo[3,2-d]pyrimidine-4-carboxamide] gave a pIC50 of 7.00 to 8.00.

On to `CN(C)CCO[C@H]1CC[C@H](NC(=O)c2nc(-n3ccnc3)nc3cc[nH]c23)CC1` [Example 72, N-((1r,4r)-4-(2-(Dimethylamino)ethoxy)cyclohexyl)-2-(1H-imidazol-1-yl)-5H-pyrrolo[3,2-d]pyrimidine-4-carboxamide], for which the pIC50 was 7.00 to 8.00.

In turn, `O=C(NC1CCNC1)c1nc(-n2ccnc2)nc2cc[nH]c12` (stereo not shown) [Example 73, 2-(1H-Imidazol-1-yl)-N-(pyrrolidin-3-yl)-5H-pyrrolo[3,2-d]pyrimidine-4-carboxamide] showed a negative-log IC50 (pIC50) of 6.00 to 7.00.

For the molecule `CN1CCC(NC(=O)c2nc(-n3ccnc3)nc3cc[nH]c23)C1` (stereo not shown) [Example 74, 2-(1H-Imidazol-1-yl)-N-(1-methylpyrrolidin-3-yl)-5H-pyrrolo[3,2-d]pyrimidine-4-carboxamide], the pIC50 is 6.00 to 7.00.

Consider `CS(=O)(=O)N1CCC(NC(=O)c2nc(-n3ccnc3)nc3cc[nH]c23)CC1` [Example 75, 2-(1H-Imidazol-1-yl)-N-(1-(methylsulfonyl)piperidin-4-yl)-5H-pyrrolo[3,2-d]pyrimidine-4-carboxamide], for which the pIC50 is over 8.00.

Molecule `O=C(NC1CCN(C2COC2)CC1)c1nc(-n2ccnc2)nc2cc[nH]c12` [Example 76, 2-(1H-Imidazol-1-yl)-N-(1-(oxetan-3-yl)piperidin-4-yl)-5H-pyrrolo[3,2-d]pyrimidine-4-carboxamide] had a pIC50 of 7.00 to 8.00.

For `O=C(NC1CCC1)c1nc(-n2ccnc2)nc2cc[nH]c12` [Example 77, N-Cyclobutyl-2-(1H-imidazol-1-yl)-5H-pyrrolo[3,2-d]pyrimidine-4-carboxamide], the pIC50 is over 8.00.

Consider `O=C(NCC1CCCCC1)c1nc(-n2ccnc2)nc2cc[nH]c12` [Example 78, N-(Cyclohexylmethyl)-2-(1H-imidazol-1-yl)-5H-pyrrolo[3,2-d]pyrimidine-4-carboxamide], for which the pIC50 was 7.00 to 8.00.

Take `O=C(NCc1ccccc1)c1nc(-n2ccnc2)nc2cc[nH]c12` [Example 79, N-Benzyl-2-(1H-imidazol-1-yl)-5H-pyrrolo[3,2-d]pyrimidine-4-carboxamide]: the pIC50 was 6.00 to 7.00.

`CNC(=O)CO[C@H]1CC[C@H](NC(=O)c2nc(-n3ccnc3)nc3cc[nH]c23)CC1` [Example 80, 2-(1H-Imidazol-1-yl)-N-((1r,4r)-4-(2-(methylamino)-2-oxoethoxy)cyclohexyl)-5H-pyrrolo[3,2-d]pyrimidine-4-carboxamide] had a negative logarithm of the IC50 (pIC50) of 7.00 to 8.00.

On to `O=C(Nc1ccccn1)c1nc(-n2ccnc2)nc2cc[nH]c12` [Example 81, 2-(1H-Imidazol-1-yl)-N-(pyridin-2-yl)-5H-pyrrolo[3,2-d]pyrimidine-4-carboxamide], for which the negative logarithm of the IC50 (pIC50) is over 8.00.

As for `O=C(Nc1ccccc1)c1nc(-n2ccnc2)nc2cc[nH]c12` [Example 82, 2-(1H-Imidazol-1-yl)-N-phenyl-5H-pyrrolo[3,2-d]pyrimidine-4-carboxamide], the pIC50 was over 8.00.

`O=C(Nc1cccnc1)c1nc(-n2ccnc2)nc2cc[nH]c12` [Example 83, 2-(1H-Imidazol-1-yl)-N-(pyridin-3-yl)-5H-pyrrolo[3,2-d]pyrimidine-4-carboxamide] showed a pIC50 of over 8.00.

As for `COc1ccc(NC(=O)c2nc(-n3ccnc3)nc3cc[nH]c23)nc1` [Example 84, 2-(1H-Imidazol-1-yl)-N-(5-methoxypyridin-2-yl)-5H-pyrrolo[3,2-d]pyrimidine-4-carboxamide], the negative-log IC50 (pIC50) is over 8.00.

Consider `COc1ccc(NC(=O)c2nc(-n3ccnc3)nc3cc[nH]c23)cn1` [Example 85, 2-(1H-Imidazol-1-yl)-N-(6-methoxypyridin-3-yl)-5H-pyrrolo[3,2-d]pyrimidine-4-carboxamide], for which the pIC50 was over 8.00.

In turn, `O=C(Nc1cc[nH]n1)c1nc(-n2ccnc2)nc2cc[nH]c12` [Example 86, 2-(1H-Imidazol-1-yl)-N-(1H-pyrazol-3-yl)-5H-pyrrolo[3,2-d]pyrimidine-4-carboxamide] gave a pIC50 of over 8.00.

On to `O=C(Nc1ccc(Cl)cc1)c1nc(-n2ccnc2)nc2cc[nH]c12` [Example 87, N-(4-Chlorophenyl)-2-(1H-imidazol-1-yl)-5H-pyrrolo[3,2-d]pyrimidine-4-carboxamide], for which the pIC50 is over 8.00.

Molecule `O=C(Nc1cccc(Cl)c1)c1nc(-n2ccnc2)nc2cc[nH]c12` [Example 88, N-(3-Chlorophenyl)-2-(1H-imidazol-1-yl)-5H-pyrrolo[3,2-d]pyrimidine-4-carboxamide] showed a negative-log IC50 (pIC50) of over 8.00.

The molecule `O=C(Nc1ccccc1Cl)c1nc(-n2ccnc2)nc2cc[nH]c12` [Example 89, N-(2-Chlorophenyl)-2-(1H-imidazol-1-yl)-5H-pyrrolo[3,2-d]pyrimidine-4-carboxamide] had a pIC50 of over 8.00.

Molecule `O=C(NC1CCCC1)c1nc(-n2ccnc2)nc2cc[nH]c12` [Example 90, N-Cyclopentyl-2-(1H-imidazol-1-yl)-5H-pyrrolo[3,2-d]pyrimidine-4-carboxamide] had a pIC50 of over 8.00.

Consider `O=C(NC1CCOC1)c1nc(-n2ccnc2)nc2cc[nH]c12` (stereo not shown) [Example 91, 2-(1H-Imidazol-1-yl)-N-(tetrahydrofuran-3-yl)-5H-pyrrolo[3,2-d]pyrimidine-4-carboxamide], for which the negative logarithm of the IC50 (pIC50) was over 8.00.

In the case of `O=C(NC1CCCCCC1)c1nc(-n2ccnc2)nc2cc[nH]c12` [Example 92, N-Cycloheptyl-2-(1H-imidazol-1-yl)-5H-pyrrolo[3,2-d]pyrimidine-4-carboxamide], the pIC50 is over 8.00.

In the case of `CC(C)NC(=O)c1nc(-n2ccnc2)nc2cc[nH]c12` [Example 93, 2-(1H-Imidazol-1-yl)-N-isopropyl-5H-pyrrolo[3,2-d]pyrimidine-4-carboxamide], the pIC50 was 7.00 to 8.00.

For the molecule `Cn1ccc(NC(=O)c2nc(-n3ccnc3)nc3cc[nH]c23)n1` [Example 94, 2-(1H-Imidazol-1-yl)-N-(1-methyl-1H-pyrazol-3-yl)-5H-pyrrolo[3,2-d]pyrimidine-4-carboxamide], the pIC50 is over 8.00.

`Cn1cnc(NC(=O)c2nc(-n3ccnc3)nc3cc[nH]c23)c1` [Example 95, 2-(1H-Imidazol-1-yl)-N-(1-methyl-1H-imidazol-4-yl)-5H-pyrrolo[3,2-d]pyrimidine-4-carboxamide]: the pIC50 is 7.00 to 8.00.

Turning to `O=C(Nc1ccc(F)c(Cl)c1)c1nc(-n2ccnc2)nc2cc[nH]c12` [Example 96, N-(3-Chloro-4-fluorophenyl)-2-(1H-imidazol-1-yl)-5H-pyrrolo[3,2-d]pyrimidine-4-carboxamide], the pIC50 was over 8.00.

`O=C(N[C@H]1CC[C@H](OCCN2CCOCC2)CC1)c1nc(-n2ccnc2)nc2cc[nH]c12` [Example 97, 2-(1H-Imidazol-1-yl)-N-((1r,4r)-4-(2-morpholinoethoxy)cyclohexyl)-5H-pyrrolo[3,2-d]pyrimidine-4-carboxamide] showed a pIC50 of 7.00 to 8.00.

In turn, `O=C(Nc1cn[nH]c1)c1nc(-n2ccnc2)nc2cc[nH]c12` [Example 98, 2-(1H-Imidazol-1-yl)-N-(1H-pyrazol-4-yl)-5H-pyrrolo[3,2-d]pyrimidine-4-carboxamide] showed a pIC50 of over 8.00.

As for `Cn1cc(NC(=O)c2nc(-n3ccnc3)nc3cc[nH]c23)cn1` [Example 99, 2-(1H-Imidazol-1-yl)-N-(1-methyl-1H-pyrazol-4-yl)-5H-pyrrolo[3,2-d]pyrimidine-4-carboxamide], the pIC50 was over 8.00.

For `COCCOc1cccc(NC(=O)c2nc(-n3ccnc3)nc3cc[nH]c23)c1` [Example 100, 2-(1H-Imidazol-1-yl)-N-(3-(2-methoxyethoxy)phenyl)-5H-pyrrolo[3,2-d]pyrimidine-4-carboxamide], the pIC50 was over 8.00.

For `O=C(N[C@H]1CC[C@H](NCC(F)(F)F)CC1)c1nc(-n2ccnc2)nc2cc[nH]c12` [Example 101, 2-(1H-imidazol-1-yl)-N-((1r,4r)-4-((2,2,2-trifluoroethyl)amino)cyclohexyl)-5H-pyrrolo[3,2-d]pyrimidine-4-carboxamide], the pIC50 was 7.00 to 8.00.

Source of the values: US11535621B2, “Heterobicyclic amides as inhibitors of CD38” (Ribon Therapeutics, Inc., priority 2019, dated 2022).
